Results from patent US20240116985A1, “STAPLED PEPTIDES AND METHODS THEREOF” (priority 2020, published 2024).
Values after ≈ are worked out from the molar mass of the structure shown. Like-named read-outs stand apart in the source and are kept apart here.

Columns and labels:
Solubility in PBS = type: physicochemical
In short: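 Read-out is the HPLC peak area of the supernatant from ultracentrifuged PBS solution, scaled against a 50 μM peptide DMSO injection; value reported as [(PBS area)/(DMSO area)]*50 uM.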

[1] = biological target: T1, full-length beta-Catenin (Uniprot ID P35222) (Homo sapiens, UniProt P35222); test: Fluorescence polarization IC50 (beta-catenin / 5FAM-TCF4 10-53 competition); type: binding
T1 construct: 10 nM full-length beta-Catenin (Uniprot ID P35222)
T1 sequence (P35222 1-781): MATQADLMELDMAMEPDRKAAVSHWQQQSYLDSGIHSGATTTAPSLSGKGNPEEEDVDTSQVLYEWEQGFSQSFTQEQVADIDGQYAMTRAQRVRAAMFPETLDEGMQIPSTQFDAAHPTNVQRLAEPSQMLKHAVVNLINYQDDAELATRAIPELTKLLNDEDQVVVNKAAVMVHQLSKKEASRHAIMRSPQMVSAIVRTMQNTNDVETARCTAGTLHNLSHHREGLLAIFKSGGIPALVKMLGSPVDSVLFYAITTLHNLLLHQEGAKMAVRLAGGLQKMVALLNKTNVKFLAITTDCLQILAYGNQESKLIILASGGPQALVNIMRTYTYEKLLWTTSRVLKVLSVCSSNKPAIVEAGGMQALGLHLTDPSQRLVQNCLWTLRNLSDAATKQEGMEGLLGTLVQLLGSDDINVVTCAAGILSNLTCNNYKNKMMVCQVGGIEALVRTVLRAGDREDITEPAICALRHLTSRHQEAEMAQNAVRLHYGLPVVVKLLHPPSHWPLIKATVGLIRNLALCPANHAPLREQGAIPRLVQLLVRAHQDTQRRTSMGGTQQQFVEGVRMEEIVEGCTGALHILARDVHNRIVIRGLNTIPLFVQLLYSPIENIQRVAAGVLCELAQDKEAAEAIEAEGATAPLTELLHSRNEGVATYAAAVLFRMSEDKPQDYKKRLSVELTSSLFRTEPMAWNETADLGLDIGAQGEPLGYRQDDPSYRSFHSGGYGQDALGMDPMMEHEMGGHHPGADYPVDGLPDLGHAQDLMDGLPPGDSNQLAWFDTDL

CHI Log D procedure = type: physicochemical; settings: for chromatographic logD: pH 7.4, CHI Log D; for CHI Log D: pH 7.4
[2] = biological target: T2, beta-catenin/TCF4 engagement (Homo sapiens, UniProt P35222); test: Nano-BRET target engagement assay (B-cat-Halo & TCF4-Luc in HEK293 cells); type: cell-based; settings: read-out: NanoBRET Abs IC50
T2 construct: expressed in transfected cells; host or cells: HEK293
T2 sequence (P35222 1-781): T1 sequence (P35222 1-781)

[3] = fluorescence polarization, read-out: beta-Catenin FP IC50

| SMILES | Solubility (Solubility in PBS) [µM] | IC50 ([1]; read-out: beta-Catenin FP IC50) [nM] | chromatographic logD (CHI Log D procedure) | IC50 ([2]; absolute IC50) [µM] | IC50 [1, 3] [nM] | IC50 ([1]; read-out: FP EC50) [nM] | CHI Log D (CHI Log D procedure) | Solubility (Solubility in PBS; Solubility (uM)) [µM] | IC50 [2] [µM] | IC50 ([1]; fluorescence polarization, beta-catenin, read-out: FP EC50) [nM] | IC50 ([2]; Abs IC50) [µM] |
| --- | --- | --- | --- | --- | --- | --- | --- | --- | --- | --- | --- |
| CC(=O)N1CCC[C@]12CC=CCCCC1(CCCC=CCCCOC(=O)N3CC[C@@](C(=O)N[C@@H](Cc4ccsc4)C(=O)N[C@@H](Cc4csc5ccccc45)C(=O)N[C@@H](CCC(N)=O)C(N)=O)(C3)NC(=O)[C@H](CC(N)=O)NC(=O)[C@H](Cc3ccccc3)NC(=O)[C@H](C)NC(=O)[C@H](C)NC(=O)[C@H](Cc3ccc(O)cc3)NC(=O)[C@H](CC(=O)O)NC1=O)NC(=O)[C@H](CC(C)(C)C)NC(=O)[C@H](CC(=O)O)NC2=O (stereo partly drawn) [I-842, Ac-PL3-Asp-Npg-B5-Asp-Tyr-Ala-Ala-Phe-Asn-PyrS2-3Thi-BztA-Gln-NH2] | 10 (≈ 19.7 µg/mL) | 34 | 2.39 | 47.9 |  |  |  |  |  |  |  |
| CC[C@@H]1NC(=O)[C@H](CC(=O)O)NC(=O)[C@]2(CC=CCCCC3(CCCC=CCCCCCC[C@@](C)(C(=O)N[C@@H](Cc4ccccc4)C(=O)N[C@@H](Cc4csc5ccccc45)C(=O)N[C@@H](CCC(N)=O)C(N)=O)NC(=O)[C@H](CC(N)=O)NC(=O)[C@H](Cc4ccccc4)NC(=O)[C@H](C)NC(=O)[C@H](C)NC(=O)[C@H](CC(=O)O)NC(=O)[C@H](CC(=O)O)NC3=O)NC1=O)CCCN2C(C)=O (stereo partly drawn) [I-573, Ac-PL3-Asp-Abu-B5-Asp-Asp-Ala-Ala-Phe-Asn-S8-Phe-BztA-Gln-NH2] | 49 (≈ 89.5 µg/mL) |  |  | 33.3 | 36 | 36 | 2.116 |  |  |  |  |
| CC(=O)N1CCC[C@]12CC=CCCCC1(CCCC=CCCCOC(=O)N3CC[C@@](C(=O)N[C@@H](CC4CCCCC4)C(=O)N[C@@H](Cc4csc5ccccc45)C(=O)N[C@@H](CO)C(N)=O)(C3)NC(=O)[C@H](CO)NC(=O)[C@H](Cc3ccccc3)NC(=O)[C@H](C)NC(=O)[C@H](C)NC(=O)[C@H](CC(=O)O)NC(=O)[C@H](CC(=O)O)NC1=O)NC(=O)[C@H](CC(C)(C)C)NC(=O)[C@H](CC(=O)O)NC2=O (stereo partly drawn) [I-1106, Ac-PL3-Asp-Npg-B5-Asp-Asp-Ala-Ala-Phe-Ser-PyrS2-Cha-BztA-Ser-NH2] |  | 23 | 2.44 | > 20 |  |  |  | 47 (≈ 87 µg/mL) |  |  |  |
| CC(=O)N1CCC[C@]12CC=CCCCC1(CCCC=CCCCOC(=O)N3CC[C@@](C(=O)N[C@@H](Cc4ccsc4)C(=O)N[C@@H](Cc4csc5ccccc45)C(=O)N[C@@H](CCC(N)=O)C(N)=O)(C3)NC(=O)[C@H](CC(N)=O)NC(=O)[C@H](Cc3ccccc3)NC(=O)[C@H](C)NC(=O)[C@H](C)NC(=O)[C@H](CC(=O)O)NC(=O)[C@H](CC(=O)O)NC1=O)NC(=O)[C@H](CC(C)C)NC(=O)[C@H](CC(=O)O)NC2=O (stereo partly drawn) [I-689, Ac-PL3-Asp-Leu-B5-Asp-Asp-Ala-Ala-Phe-Asn-PyrS2-3Thi-BztA-Gln-NH2] | 50 (≈ 95.2 µg/mL) |  |  | 33.9 | 11 | 11 | 1.957 |  |  |  |  |
| CC(=O)N1CCC[C@]12CC=CCCCC1(CCCC=CCCCOC(=O)N3CC[C@@](C(=O)N[C@@H](Cc4ccsc4)C(=O)N[C@@H](Cc4csc5ccccc45)C(=O)N[C@@H](CCC(N)=O)C(N)=O)(C3)NC(=O)[C@H](CC(N)=O)NC(=O)[C@H](Cc3ccccc3)NC(=O)[C@H](CCCCNC(=O)C(C)(c3ccccc3)c3ccccc3)NC(=O)[C@H](C)NC(=O)[C@H](CC(=O)O)NC(=O)[C@H](CC(=O)O)NC1=O)NC(=O)[C@H](CC(C)(C)C)NC(=O)[C@H](CC(=O)O)NC2=O (stereo partly drawn) [I-885, Ac-PL3-Asp-Npg-B5-Asp-Asp-Ala-[22PhPr]Lys-Phe-Asn-PyrS2-3Thi-BztA-Gln-NH2] |  | 32 | 2.39 |  |  |  |  | 43 (≈ 93.9 µg/mL) | > 20 |  |  |
| CC(=O)N1CCC[C@]12CC=CCCCC1(CCCC=CCCCOC(=O)N3CC[C@@](C(=O)N[C@@H](Cc4ccccc4)C(=O)N[C@@H](Cc4csc5ccccc45)C(=O)N[C@@H](CCC(N)=O)C(N)=O)(C3)NC(=O)[C@H](CC(C)C)NC(=O)[C@H](Cc3ccccc3)NC(=O)[C@H](C)NC(=O)[C@H](C)NC(=O)[C@H](CC(=O)O)NC(=O)[C@H](CC(=O)O)NC1=O)NC(=O)[C@H](CC(C)(C)C)NC(=O)[C@H](CC(=O)O)NC2=O (stereo partly drawn) [I-1072, Ac-PL3-Asp-Npg-B5-Asp-Asp-Ala-Ala-Phe-Leu-PyrS2-Phe-BztA-Gln-NH2] |  | 10 | 1.39 |  |  |  |  | 35 (≈ 66.9 µg/mL) | 10.5 | 723 |  |
| CC(=O)N1CCC[C@]12CC=CCCCC1(CCCC=CCCCCCC[C@@](C)(C(=O)N[C@@H](Cc3ccccc3)C(=O)N[C@@H](Cc3csc4ccccc34)C(=O)N[C@@H](CC(N)=O)C(N)=O)NC(=O)[C@H](CC(N)=O)NC(=O)[C@H](Cc3ccccc3)NC(=O)[C@H](C)NC(=O)[C@H](C)NC(=O)[C@H](CCC(=O)O)NC(=O)[C@H](CC(=O)O)NC1=O)NC(=O)[C@H](CC(C)C)NC(=O)[C@H](CC(=O)O)NC2=O (stereo partly drawn) [I-753, Ac-PL3-Asp-Leu-B5-Asp-Glu-Ala-Ala-Phe-Asn-S8-Phe-BztA-Asn-NH2] | 50 (≈ 92.8 µg/mL) |  |  | 10 | 14 | 14 | 2.432 |  |  |  | 10 |
| CC(=O)N1CCC[C@]12CC=CCCCC1(CCCC=CCCCCCC[C@@](C)(C(=O)N[C@@H](Cc3ccccc3)C(=O)N[C@@H](Cc3csc4ccccc34)C(=O)N[C@@H](CCC(N)=O)C(N)=O)NC(=O)[C@H](CC(N)=O)NC(=O)[C@H](Cc3ccccc3)NC(=O)[C@H](C)NC(=O)[C@H](C)NC(=O)[C@H](CC(=O)O)NC(=O)[C@H](CC(=O)O)NC1=O)NC(=O)[C@H](CC(C)C)NC(=O)[C@H](CC(=O)O)NC2=O (stereo partly drawn) [I-563, Ac-PL3-Asp-Leu-B5-Asp-Asp-Ala-Ala-Phe-Asn-S8-Phe-BztA-Gln-NH2] | 50 (≈ 92.8 µg/mL) |  |  | 15.7 | 19 | 19 | 2.317 |  |  |  |  |
| CC(=O)N1CCC[C@]12CC=CCCCC1(CCCC=CCCCOC(=O)N3CC[C@@](C(=O)N[C@@H](Cc4ccsc4)C(=O)N[C@@H](Cc4csc5ccccc45)C(=O)N[C@@H](Cc4c[nH]cn4)C(N)=O)(C3)NC(=O)[C@H](CC(N)=O)NC(=O)[C@H](Cc3ccccc3)NC(=O)[C@H](C)NC(=O)[C@H](C)NC(=O)[C@H](CCC(=O)O)NC(=O)[C@H](CC(=O)O)NC1=O)NC(=O)[C@H](CC(C)(C)C)NC(=O)[C@H](CC(=O)O)NC2=O (stereo partly drawn) [I-697, Ac-PL3-Asp-Npg-B5-Asp-Glu-Ala-Ala-Phe-Asn-PyrS2-3Thi-BztA-His-NH2] | 21 (≈ 40.8 µg/mL) |  |  | 14.7 | 5 |  | 2.093 |  |  |  |  |
| CC(=O)N1CCC[C@]12CC=CCCCC1(CCCC=CCCCOC(=O)N3CC[C@@](C(=O)N[C@@H](Cc4ccccc4Cl)C(=O)N[C@@H](Cc4csc5ccccc45)C(=O)N[C@@H](CCC(N)=O)C(N)=O)(C3)NC(=O)[C@H](CC(C)C)NC(=O)[C@H](Cc3ccc(C(F)(F)F)cc3)NC(=O)[C@H](C)NC(=O)[C@H](C)NC(=O)[C@H](CC(=O)O)NC(=O)[C@H](CC(=O)O)NC1=O)NC(=O)[C@H](CC(C)(C)C)NC(=O)[C@H](CC(=O)O)NC2=O (stereo partly drawn) [I-1123, Ac-PL3-Asp-Npg-B5-Asp-Asp-Ala-Ala-4F3MeF-Leu-PyrS2-2C1F-BztA-Gln-NH2] |  | 64 | 2.46 |  |  |  |  | 12 (≈ 24.2 µg/mL) | 28.5 |  |  |
